Measured values: paper PMC10945555, “Improving Activity of New Arylurea Agents against Multidrug-Resistant and Biofilm-Producing Staphylococcus epidermidis” (ACS Medicinal Chemistry Letters, 2024)
Values after ≈ are worked out from the molar mass of the structure shown. Where two headings read alike, the source gives them in different places.

Key:
[1] = system: Staphylococcus epidermidis ATCC 35984; test: MIC, broth microdilution, MDR/BPSE reference strain; type: cell-based; conditions: for MIC: Staphylococcus epidermidis, ATCC35984, read-out: MIC MDR/BPSE, Staphylococcus epidermidis ATCC 35984
From the text: (§1) These strains included susceptible, multidrug-resistant, and biofilm-producing strains of S. epidermidis and S. aureus (MSSE, MDR/BPSE, and MDR/BPSA, respectively). The cornerstone antibiotic linezolid served as a positive control (Table 1). The impact of structural modifications at the aryloxy fragment and the aromatic moiety bound to the propyl linker on the inhibitory activity was initially investigated. […] Further optimization focused on evaluating the impact of the type of substituent and its position on the arylsulfonamide fragment’s activity.
(§2) 2 Biological assay protocols
(§3) Microbiological tests were carried out under aseptic conditions in a laminar chamber of the 2nd […]
(§4) (BioTectum 1.2, Alchem Poland). The assessment of antimicrobial activity was carried out for final compounds in the form of free bases, soluble in DMSO (Merck, Germany), at the initial […]
(§5) concentration of 1 mg/mL. […]
(§6) were provided by Cayman Chemical, USA.
(§7) The activity of all newly synthesized compounds was tested in vitro on a panel of selected reference strains from the American Type Culture Collection (ATCC) of Gram-positive […]
(§8) 2.2 Effect of evaluated compounds on planktonic cells
(§9) The susceptibility of three reference bacterial strains (Staphylococcus epidermidis ATCC […]
(§10) Table S1) and 81 clinical MDR S. epidermidis (Table S2) to the tested compounds was assessed by determining the MIC value (Minimal Inhibitory Concentration) by microdilution in a liquid medium in 96-well flat-bottom cell culture plates (Nest Biotechnology Scientific, USA). The antibacterial properties of the compo unds were tested in the concentration range from 50 µg/mL to 0.1 µg/mL by making a series of double dilutions of the compound in liquid Mueller -Hinton II Broth Cation Adjusted (MHB II, BBL TM, USA) according to the European Committee on […]
(§11) Antimicrobial Susceptibility Testing guidelines (EUCAST).2,3 The determinations were performed twice. The MIC50 and MIC90 values were determined for each of the tested

[2] = system: Staphylococcus aureus ATCC BAA-976; test: MIC, broth microdilution, MDR/BPSA reference strain; type: cell-based
From the text: as §1, §2, §3, §4, §5, §6, §7, §8, §9, §10, §11

[3] = system: Staphylococcus epidermidis ATCC 12228; test: MIC, broth microdilution, MSSE reference strain; type: cell-based
From the text: as §1, §2, §3, §4, §5, §6, §7, §8, §9, §10, §11

[4] = system: reference susceptible and multidrug-resistant S. epidermidis and S. aureus strains; test: MIC, reference S. epidermidis and S. aureus strains (hit screening); type: cell-based
From the text: (§12) Despite numerous efforts to ensure sterility and encourage the prudent use of currently available antibiotics, morbidity rates persist at high levels. These findings underscore the pressing need for the development of a novel class of potential antimicrobial agents targeting multidrug-resistant and biofilm-forming S. epidermidis. […] Herein we present the discovery of new aryloxy[1-(thien-2-yl)propyl]piperidines with improved antibacterial activity compared to compound I, evaluated against a spectrum of clinical S. epidermidis isolates (81 strains), including multidrug-resistant and biofilm-forming strains. We also determined their bacteriostatic/bactericidal properties and conducted a real-time analysis of bacterial growth. Finally, we evaluated the ability of the most promising compound, 25, in terms of its activity and safety over mammalian cell lines, to disrupt the staphylococcal cell membranes of clinical S. epidermidis.

Gram-negative bacteria = test: MIC, tested Gram-negative bacteria (hit screening); type: cell-based
From the text: as §12

[5] = system: Acinetobacter baumannii ATCC 19606; test: MIC, Gram-negative reference strain; type: cell-based; conditions: Acinetobacter baumannii, ATCC19606
Procedure: as §2, §3, §4, §5, §6, §7, §8, §9, §10, §11

[6] = system: Pseudomonas aeruginosa ATCC 27853; test: MIC, Gram-negative reference strain; type: cell-based; conditions: Pseudomonas aeruginosa, ATCC27853, read-out: MIC P. aeruginosa
Procedure: as §2, §3, §4, §5, §6, §7, §8, §9, §10, §11

[7] = system: Escherichia coli ATCC 25922; test: MIC, Gram-negative reference strain; type: cell-based; conditions: Escherichia coli, ATCC25922
Procedure: as §2, §3, §4, §5, §6, §7, §8, §9, §10, §11

H9c2 cells = test: Cytotoxicity, MTT assay, cardiomyocytes; type: cell-based; conditions: Rattus norvegicus, 24 h, n = 3
Procedure: (§13) The following cell models were used in the research: rat cardiomyocytes (H9c2 line) and human skin fibroblasts (BJ line). All cell lines used in the work are commercially available and were purchased from ATCC banks (the American Type Culture Collection, Manassas, VI, USA). Cell cultures were carried out in an incubator under standard conditions (37°C, 5% CO 2).
(§14) Culture media (Dulbecco's Modified Eagle's Medium -DMEM (H9c2) and Eagle's Minimum Essential Medium-EMEM (BJ) were supplemented with 10% bovine serum and a 1% mixture of penicillin and streptomycin antibiotics. […]
(§15) doxorubicin (a cytotoxic drug) were used as reference and positive control, respectively. […]
(§16) incubated with studied compound in appropriate concentration for next 24 h. Then MTT solution (5 mg/mL) was transferred into culture medium of incubated cells. After 3 h, once dark crystals of formazan were produced in cells, medium was aspirated and 100 μ L of DMSO was added to dissolve formazan. Absorbance of DMSO solution was read on a multiwell plate reader (Spectra Max iD3, Molecular Devices) at 570 nm. In order to determine viability, absorbance of experimental wells was divided by absorbance of contro l well (not treated) and multiplied by 100 (%). Three separate experiments were performed. IC 50 was calculated using non-linear regression method in OriginPro software. […]

BJ cells = test: Cytotoxicity, MTT assay, skin fibroblasts; type: cell-based, human; conditions: Homo sapiens, MTT, 24 h, n = 3
Procedure: as §13, §14, §15
as §16, with “solution” for “incubated with studied compound in appropriate concentration for next 24 h. Then MTT solution”

[8] = Staphylococcus aureus, ATCCBAA976, read-out: MIC MDR/BPSA
[9] = ATCCBAA976, Staphylococcus aureus ATCC BAA-976, read-out: MIC MDR/BPSA
[10] = ATCC12228, Staphylococcus epidermidis ATCC 12228, read-out: MIC MSSE

SMILES | MIC [1] [µg/mL] | MIC [2, 8] [µg/mL] | MIC [2, 9] [µg/mL] | MIC [3, 10] [µg/mL] | further results
O=S(=O)(NC1CCN(CCC(Oc2cccc(C(F)(F)F)c2)c2cccs2)CC1)c1cccc(Cl)c1 (stereo not shown) [Compound 13] | 3.12 (≈ 5.59 µM) | 3.12 (≈ 5.59 µM) | – | – | MIC ([3]; ATCC12228, read-out: MIC MSSE): 3.12 µg/mL (≈ 5.59 µM)
O=S(=O)(NC1CCN(CCC(Oc2ccc(C(F)(F)F)cc2)c2cccs2)CC1)c1ccccc1 (stereo not shown) [Compound 15] | 6.25 (≈ 11.9 µM) | – | 12.5 (≈ 23.8 µM) | 12.5 (≈ 23.8 µM) | –
O=S(=O)(NC1CCN(CCC(Oc2ccc(C(F)(F)F)cc2)c2cccs2)CC1)c1ccccc1Cl (stereo not shown) [Compound 16] | 6.25 (≈ 11.2 µM) | – | 50 (≈ 89.4 µM) | 50 (≈ 89.4 µM) | –
O=S(=O)(NC1CCN(CCC(Oc2ccc(C(F)(F)F)cc2)c2cccs2)CC1)c1cccc(F)c1 (stereo not shown) [Compound 17] | 6.25 (≈ 11.5 µM) | 6.25 (≈ 11.5 µM) | – | 12.5 (≈ 23 µM) | –
Cc1cccc(S(=O)(=O)NC2CCN(CCC(Oc3ccc(C(F)(F)F)cc3)c3cccs3)CC2)c1 (stereo not shown) [Compound 19] | 0.2 (≈ 0.371 µM) | – | 50 (≈ 92.8 µM) | 50 (≈ 92.8 µM) | –
COc1cccc(S(=O)(=O)NC2CCN(CCC(Oc3ccc(C(F)(F)F)cc3)c3cccs3)CC2)c1 (stereo not shown) [Compound 20] | 0.1 (≈ 0.18 µM) | – | 25 (≈ 45.1 µM) | 50 (≈ 90.1 µM) | –
O=S(=O)(NC1CCN(CCC(Oc2ccc(C(F)(F)F)cc2)c2cccs2)CC1)c1ccc(F)cc1 (stereo not shown) [Compound 22] | 1.6 (≈ 2.95 µM) | – | 6.25 (≈ 11.5 µM) | 6.25 (≈ 11.5 µM) | –
O=S(=O)(NC1CCN(CCC(Oc2ccc(C(F)(F)F)cc2)c2cccs2)CC1)c1ccc(Cl)cc1 (stereo not shown) [Compound 23] | 0.2 (≈ 0.358 µM) | – | 6.25 (≈ 11.2 µM) | 12.5 (≈ 22.4 µM) | –
O=C(Nc1ccccc1)NC1CCN(CCC(Oc2ccc(C(F)(F)F)cc2)c2cccs2)CC1 (stereo not shown) [Compound 24] | 6.25 (≈ 12.4 µM) | 6.25 (≈ 12.4 µM) | – | – | MIC ([3]; ATCC12228, read-out: MIC MSSE): 6.25 µg/mL (≈ 12.4 µM)
O=C(Nc1ccc(F)cc1)NC1CCN(CCC(Oc2ccc(C(F)(F)F)cc2)c2cccs2)CC1 (stereo not shown) [Compound 26] | ≥ 6.25 | – | – | 50 (≈ 95.9 µM) | –
O=C(Nc1ccc(Cl)cc1)NC1CCN(CCC(Oc2ccc(C(F)(F)F)cc2)c2cccs2)CC1 (stereo not shown) [Compound 27] | ≥ 6.25 | – | – | 50 (≈ 92.9 µM) | –
O=S(=O)(NC1CCN(CCC(Oc2cccc(C(F)(F)F)c2)c2ccccc2)CC1)c1cccc(Cl)c1 (stereo not shown) [I] | 3.12 (≈ 5.65 µM) | 3.12 (≈ 5.65 µM) | – | – | MIC MDR/BPSE ([1]; Staphylococcus epidermidis ATCC 35984): 6.25 µg/mL (≈ 11.3 µM); MIC [4]: 3.12 to 6.25 µg/mL (≈ 5.65 to 11.3 µM); activity towards Gram-negative bacteria (Gram-negative bacteria): Not active; MIC (Gram-negative bacteria; tested Gram-negative bacteria): ≥ 25 µg/mL; MIC ([3]; ATCC12228, read-out: MIC MSSE): 3.12 µg/mL (≈ 5.65 µM); MIC [5]: 50 µg/mL (≈ 90.4 µM); MIC [6]: 50 µg/mL (≈ 90.4 µM); MIC [7]: 50 µg/mL (≈ 90.4 µM)
COc1cccc2c1C(=O)c1c(O)c3c(c(O)c1C2=O)C[C@@](O)(C(=O)CO)C[C@@H]3O[C@H]1C[C@H](N)[C@H](O)[C@H](C)O1 [doxorubicin, reference compound] | – | – | – | – | IC50 (H9c2 cells): 0.39 µg/mL (≈ 0.718 µM); IC50 (BJ cells): 0.39 µg/mL (≈ 0.718 µM)
